Here are results for 68 compounds from PubChem BioAssay AID179 (DTP/NCI, 2004).

This experiment has as its system CEM cells HIV-1 protection, formazan growth assay. The experiment can be described thus: NCI AIDS Antiviral Assay. The conditions noted are these: for IC50: measured here: growth of uninfected CEM cells. Put shortly: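 Protection of CEM cells against HIV-1 measured as cell growth via soluble formazan read-out, with five concentrations tested on both infected and uninfected cells; failure to protect may reflect toxicity.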

As a reminder, the EC50 is the concentration at which the effect is half-maximal. Broadly, the IC50 is the concentration that gives 50% inhibition. Lower therefore signals inhibition by little substance.

Values joined by “and” are separate entries in the source; they are usually repeats but may differ in a detail not shown here. Equal values may be shown once. Active and inactive are the calls of the source.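 The calls were made as follows: active = compounds giving half or more protection of infected cells from virus-caused growth loss, again on retest; inactive = the rest.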 Where a SMILES comes first, the peptide text is derived from it. [ ]: non-standard residue; d: D form. The star is where a group is joined. AllylGly = C=CC[CH](N)C(=O)O; Boc = CC(C)(C)OC(=O)*; Bn = c1ccc(C*)cc1; OtBu = CC(C)(C)O*

Regarding `NC(=O)/C(=N\NC(=O)c1cc2ccccc2cc1O)C1C(=O)N(c2ccccc2)N=C1N` (centres undefined), the EC50 was greater than 219 µM and the IC50 was determined as 13.8 µM.
Taken in the same sequence, the figures for `CCOC(=O)NC(C(F)(F)F)(C(F)(F)F)P(=O)(OC(C)C)OC(C)C` were greater than 200 µM and greater than 200 µM.
Turning to `O=C1c2ccccc2-c2cc(S)c([N+](=O)[O-])cc21`, the EC50 is greater than 200 µM and the IC50 was found to be 145 µM.
For `c1ccc(C2=NOC(c3ccccc3)N2C23CC4CC(CC(C4)C2)C3)cc1` (centres undefined) the same measures were greater than 200 µM and greater than 200 µM.
Take `CCCCCCCCOP(=O)(/C=C/c1ccccc1)OCCCCCCCC`: the EC50 is greater than 6.61 µM and the IC50 is greater than 6.61 µM.
On to `CC1(c2ccc3cccc(F)c3c2)OC(=O)c2ccccc21` (centres undefined), for which the outcome was inactive.
Take `C[n+]1c2ccccc2c(NC(CCC(N)=O)C(=O)O)c2ccccc21` (centres undefined): the result was inactive.
`CC(=O)c1sc2c(c1OC(=O)c1ccccc1)c(=O)n(-c1ccccc1)c(=S)n2-c1ccccc1`: the EC50 is greater than 2 µM and the half-maximal inhibitory concentration (IC50) worked out at 0.0631 µM.
For `O=c1c(I)c[nH]cc1I` the same measures were greater than 200 µM and greater than 200 µM.
Regarding `CCCCCCCC(=O)OC[C@@H](C[As](=O)(O)O)OC(=O)CCCCCCC`, the EC50 was greater than 200 µM and the IC50 turned out to be 9.33 µM.
Consider `CC(=O)Oc1ccc(C)c2c1[C@H]1CC[C@]3(C)[C@@H](OC(C)=O)CC[C@H]3[C@@H]1CC2`, for which the EC50 was greater than 200 µM and the IC50 is 32.4 µM.
Turning to `C=CCc1cc(CN2CCN(C)CC2)c(O)c(OC)c1`, the EC50 is greater than 200 µM and the IC50 is greater than 200 µM.
As for `COc1ccc2c(c1)C(N)=C(c1ccccc1)C2=O`, the EC50 is greater than 200 µM and the IC50 is 75.9 µM.
For `O=C(Nc1ccc(S(=O)(=O)N[C@@H](C(=O)O)c2ccccc2)cc1)c1ccc(F)cc1`, the outcome was inactive.
`CC(C)(C)OC/C=C1\C(=O)O[C@H]2C[C@@H](O[Si](C)(C)C(C)(C)C)C[C@@H]12`: the EC50 was greater than 200 µM and the IC50 was 39.8 µM.
Regarding `CC(=O)/C(=C/n1ccc(=O)[nH]c1=S)C(=O)Nc1ccc([N+](=O)[O-])cc1`, the EC50 is greater than 200 µM and the IC50 was 102 µM.
As to `O=S(=O)(c1cc(Cl)ccc1Cl)N1CCN(c2ccc(Cl)c(Cl)c2)CC1`, the EC50 was greater than 200 µM and the IC50 is greater than 200 µM.
Turning to `COc1cc2c(c(OC)c1OC)-c1ccc(OC)c(=O)cc1C(NC(=O)COc1ccccc1)CC2` (centres undefined), the EC50 is greater than 0.2 µM and the 50% inhibitory concentration (IC50) worked out at 0.00251 µM.
In the case of `CC1(C)C/C=C\CCC(O)C(O)CCC(C)(C)C1=O` (centres undefined), the EC50 was greater than 200 µM and the IC50 is greater than 200 µM.
Consider `CC(=O)c1cc2ccccc2n(O)c1=N`, for which the EC50 is greater than 200 µM and the IC50 was greater than 200 µM.
For `OCC1OC2OC3C(CO)OC(OC4C(CO)OC(OC5C(CO)OC(OC6C(CO)OC(OC7C(CO)OC(OC1C(O)C2O)C(O)C7O)C(O)C6O)C(O)C5O)C(O)C4O)C(O)C3O` (centres undefined) (tested in a mixture with another compound), the EC50 is greater than 200 µM and the IC50 was greater than 200 µM.
For the compound `N#C/C(=C/c1ccccc1)c1ccccc1`, the EC50 is greater than 200 µM and the IC50 is 39.8 µM.
Consider `Cc1ccc(/C=N\NC2c3cc(Cl)ccc3Nc3nc(=O)[nH]c(C)c32)cc1` (centres undefined), for which the EC50 was greater than 200 µM and the 50% inhibitory concentration (IC50) was found to be 120 µM.
Take `CC(C)(C)[Si](C)(C)OCCC1CC2(S(=O)(=O)C3=CC=C=C=C3)ON1CC2S(=O)(=O)c1ccccc1` (centres undefined): the EC50 is greater than 35.5 µM and the IC50 is greater than 35.5 µM.
For the compound `Nc1nc(-c2ccccc2)nc2oc(-c3cccs3)nc12`, the EC50 was greater than 200 µM and the IC50 was greater than 200 µM.
Consider `Cn1cnc([N+](=O)[O-])c1SC1=NCCS1`, for which the EC50 is greater than 1020 µM and the IC50 was 7.08 µM.
For `CCCNC(=O)Cn1c(-c2ccccc2)cc2ccccc21`, the EC50 is greater than 200 µM and the IC50 is greater than 200 µM.
On to `CC(C)(C)NC(=O)Nc1ccccn1`, for which the EC50 was greater than 200 µM and the IC50 is greater than 200 µM.
For `CCC1(N)COC(c2ccccc2)OC1` (centres undefined), the EC50 was greater than 200 µM and the IC50 is greater than 200 µM.
Take `C=CCC(NC(=O)C(CC(=O)OC(C)(C)C)NC(=O)OC(C)(C)C)C(=O)OC` (centres undefined) (Boc-Asp(OtBu)-[AllylGly]-OMe; configuration not given here): the EC50 is greater than 200 µM and the concentration for half-maximal inhibition (IC50) was 97.7 µM.
Consider `C[C@]12CCCC(=O)C1(O)C[C@H](C(=O)O)CC2` (some centres undefined), for which the outcome was inactive.
`COC(=O)C1Cc2cc3c(cc2C1=O)CCC3` (centres undefined): the EC50 was greater than 200 µM and the IC50 worked out at 135 µM.
As for `O=C(Nc1ccccc1)OCCN=C1c2ccccc2CCc2ccccc21`, the EC50 was greater than 200 µM and the IC50 was found to be 18.6 µM.
For `CC(C)(C)N=C1C(=O)C2(C)CCC1C2(C)C` (centres undefined), the EC50 is greater than 20 µM and the IC50 is greater than 20 µM.
As to `O=C(/C=C/c1c(O)ccc2ccccc12)c1ccccc1Cl`, the EC50 was greater than 56.2 µM and the IC50 was determined as 28.2 µM.
For the compound `COc1cc(-c2ccc(N=Nc3c(S(=O)(=O)O)cc4cc(S(=O)(=O)O)cc(N)c4c3O)c(OC)c2)ccc1N=Nc1c(S(=O)(=O)O)cc2cc(S(=O)(=O)O)cc(N)c2c1O`, the outcome was active.
For the compound `CC(C)OP(=O)(CCC(=O)C1(O)CCC2C3CCC4=CC(=O)CCC4(C)C3CCC21C)OC(C)C` (centres undefined), the EC50 is greater than 200 µM and the IC50 worked out at 32.4 µM.
As for `CC(C(=O)O)n1c(=O)ssc1=O` (centres undefined), the EC50 is 63.1 µM and the IC50 was 123 µM.
In the case of `O=c1ccn2n1Cc1ccccc1C2`, the EC50 was greater than 200 µM and the IC50 is greater than 200 µM.
In the case of `COC1CC(OC2C(C)OC(OC3C(C)OC(OC4C(C)OC(O[C@H]5CC[C@@]6(C)C(=CC[C@]7(O)[C@@H]6C[C@@H](OC(=O)/C=C/c6ccccc6)[C@@]6(C)[C@]7(O)CC[C@@]6(O)C(C)=O)C5)CC4OC)CC3OC)CC2OC)OC(C)C1O` (some centres undefined), the EC50 was greater than 200 µM and the IC50 is 21.9 µM.
As to `Cc1ccc(N=NC(C2=NC(=O)CS2)c2nc3ccccc3[nH]2)cc1` (centres undefined), the EC50 is greater than 7.41 µM and the IC50 was greater than 7.41 µM.
On to `COc1ccc(C2C3C(=O)OCCOC(=O)C3C2c2ccc(OC)c(OC)c2)cc1OC` (centres undefined), for which the EC50 was greater than 91.2 µM and the IC50 came to 83.2 µM.
For the compound `COc1cc(Br)c(C=Nc2cccc3cc(OC)c(OC)cc23)cc1OC`, the EC50 is greater than 31.6 µM and the IC50 is greater than 31.6 µM.
For the compound `O=C1Oc2ccccc2CC1C(=O)c1ccc(Cl)cc1` (centres undefined), the EC50 is greater than 18.2 µM and the IC50 is greater than 18.2 µM.
In the case of `O=C(Nc1nc2ccccc2n1Cc1ccc(Cl)cc1)C(=O)NC12CC3CC(CC(C3)C1)C2`, the EC50 was greater than 21.4 µM and the IC50 is greater than 21.4 µM.
For `O=C1C2CN(Cc3ccccc3)CC1CN(Cc1ccccc1)C2`, the EC50 is greater than 214 µM and the IC50 was found to be 141 µM.
As for `N#CC(C#N)=c1cc/c(=c2/ccc(=C(C#N)C#N)s2)s1`, the EC50 was greater than 24.5 µM and the IC50 is greater than 24.5 µM.
Turning to `Cc1cn(C2CC(O)C(CO[Si](C)(C)C(C)(C)C)OC2OC(C)C)c(=O)[nH]c1=O` (centres undefined), the EC50 is greater than 200 µM and the IC50 is 37.2 µM.
For the compound `NC1CC(n2ccc(=O)[nH]c2=O)OC1C(O)CO` (centres undefined), the EC50 is greater than 100 µM and the IC50 was greater than 100 µM.
Regarding `CCOC(=O)c1c(N)[nH]c(SSc2[nH]c(N)c(C(=O)OCC)c2C(=O)OCC)c1C(=O)OCC`, the EC50 was greater than 200 µM and the half-maximal inhibitory concentration (IC50) is 0.417 µM.
For `CS(=O)(=O)N1CC(CI)c2ccc(O)cc21` (centres undefined), the EC50 was greater than 200 µM and the IC50 was 2.4 µM.
`CCSC1=N/C(=C\c2ccco2)C(NN)=N1`: the EC50 was greater than 50.1 µM and the IC50 is greater than 50.1 µM.
As to `C=CCn1c(N)c(N=O)c(=O)n(CC)c1=O`, the EC50 was greater than 200 µM and the IC50 is greater than 200 µM.
In the case of `Nc1ccc(/C=C\c2ccc(N)cc2S(=O)(=O)O)c(S(=O)(=O)O)c1`, the EC50 is greater than 200 µM and the half-maximal inhibitory concentration (IC50) is greater than 200 µM.
Take `Cc1c(Cc2ccccc2)n(C(C)OCCN2C(=O)c3ccccc3C2=O)c(=O)[nH]c1=O` (centres undefined): the EC50 is greater than 200 µM and the IC50 is greater than 200 µM.
Regarding `CNC(=O)C(CC(C)C)NC(=O)C(C)NC(=O)C(Cc1ccc(OCc2ccccc2)cc1)NC(=O)C(COCc1ccccc1)NC(=O)OC(C)(C)C` (centres undefined) (Boc-S(Bn)Y(Bn)AL-NHMe; configuration not given here), the EC50 was greater than 200 µM; the IC50 was 9.55 µM and 13.5 µM.
`S=C(Oc1ccccc1)SSC(=S)Oc1ccccc1`: the EC50 was greater than 200 µM and the concentration for half-maximal inhibition (IC50) was 19.1 µM.
As to `O=C(O)CCCCCCCCC(=O)O`, the EC50 was greater than 178 µM and the IC50 is greater than 178 µM.
On to `Cc1c(CN2CCOCC2)cc(C(C)C)c(O)c1CN1CCOCC1`, for which the EC50 was greater than 200 µM and the half-inhibitory concentration (IC50) is greater than 200 µM.
For the compound `Clc1ccccc1OCc1nc2ccccc2[nH]1`, the EC50 is greater than 200 µM and the IC50 is greater than 200 µM.
In the case of `COC1N(C2CC(F)C(CO)O2)C(=O)NC(=O)C1(C)Br` (centres undefined), the EC50 was 0.00525 µM and 0.00316 µM; the IC50 is 5.62 µM and 6.03 µM.
With `O=C1C(c2ccccc2)=C(c2ccccc2)C(c2ccc(Cc3ccc(C4=C(c5ccccc5)C(=O)C(c5ccccc5)=C4c4ccccc4)cc3)cc2)=C1c1ccccc1`, the EC50 was greater than 1.35 µM and the IC50 was greater than 1.35 µM.
Turning to `CP1(=S)CC[C@H]2C3=C(CC[C@@H]21)CC(=O)CC3` (some centres undefined), the outcome was inactive.
On to `COc1ccc(C2C3=C(COC3=O)Oc3cc4c(cc32)OCO4)c(OC)c1` (centres undefined), for which the EC50 is greater than 200 µM and the IC50 amounted to 12.3 µM.
For `CC(=O)c1c2c(cc3c1CC1(C3)Cc3cc4c(c(C(=O)O)c3C1)CCC4)CCC2` (centres undefined), the EC50 was greater than 18.6 µM and the IC50 is greater than 18.6 µM.
Consider `N#Cc1c([N+](=O)[O-])cc(C(F)(F)F)cc1[N+](=O)[O-]`, for which the result was inactive.
As to `CCN(CC)CCO/N=C1\CC[C@H]2[C@@H]3CCc4cc(OC)ccc4[C@H]3CC[C@]12C`, the EC50 was greater than 20 µM and the IC50 came out at 2.69 µM.
Regarding `CCOC(=O)c1nc2ccc(C(F)(F)F)cc2nc1Nc1ccc(OC)c(OC)c1`, the EC50 was greater than 200 µM and the IC50 was greater than 200 µM.
